“And” between values parts separate entries of the source, which are not always exact repeats. Identical values can stand only once. Marks after values point to notes of the source that are not given here.
How the values were obtained:
Format in all cases: in vivo, mouse
[1] = system: Tyrosine Hydroxylase (dopaminergic cells); test: Tyrosine hydroxylase immunohistochemistry; details: striatum, SG-fed, either time-point
Experimental: Labelling of dopaminergic neurons in brain sections was identified by antibodies for tyrosine hydroxylase (Morrow, C. E., Bandstra, et al., (2001) Neurotoxicol Teratol. 23, 533-44) and indirect immunoperoxidase staining. Sections were incubated in blocking serum for 2 hours then with the primary antibody (rabbit anti-tyrosine hydroxylase, 1:500, Affinity Bioreagents, Golden, Colo., USA) for 3 hours at RT. Sections were rinsed and incubated in biotinylated goat anti-rabbit IgG (1:100; Vector laboratories Inc., Burlingame, USA) for 30 minutes at RT, then visualized using the ABC method (Vectastain Elite ABC kit, Vector Laboratories Inc.).
The numbers of immunoreactive somata or inclusions were counted across the ventral horn of the spinal cord, across brain hemispheres, or per dorsal or ventral root with the 40× objective lens in a 600 μm/600 μm area within region perimeters defined by a mouse brain atlas (2001). For each animal, eight cross-sections per spinal cord or brain region were studied. An average of both the right and left ventral horn for each of the eight cross sections was generated giving a final averaged number for each animal in each of the spinal cord areas. […]

[2] = system: Activating transcription factor-3; test: Anti-ATF-3 immunofluorescence; details: for Anti-ATF-3, change: SG-fed vs control
Experimental: Tissue-mounted slides were processed for fluorescence microscopy as follows: Sections were rinsed in coplin jars for 45 minutes at room temperature (RT) in three changes of PBS. Sections were then incubated at RT for 30 minutes in a blocking permeabilization solution made of 5% normal goat serum (NGS), 5% normal rabbit serum (NRS) or 5% BlokHen II (Ayes Labs, Inc., Tigard, Oreg.), 0.05% Triton X-100 and PBS. Subsequently, the blocking solution was tipped off and the slides were rinsed in PBS for 2 minutes. […]

[3] = system: Phosphorylated TDP-43 aggregates; test: TDP-43 immunofluorescence; parameters: key to Phosphorylated TDP-43 aggregates: − = not present; + = present; details: for Phosphorylated TDP-43 aggregates: SG-fed
Experimental: Tissue-mounted slides were processed for fluorescence microscopy as follows: Sections were rinsed in coplin jars for 45 minutes at room temperature (RT) in three changes of PBS. Sections were then incubated at RT for 30 minutes in a blocking permeabilization solution made of 5% normal goat serum (NGS), 5% normal rabbit serum (NRS) or 5% BlokHen II (Ayes Labs, Inc., Tigard, Oreg.), 0.05% Triton X-100 and PBS. Subsequently, the blocking solution was tipped off and the slides were rinsed in PBS for 2 minutes. Sections were then incubated overnight in a humidified chamber at 4° C. with a PBS buffered solution that contained 1% NGS or 1% NRS, 1% bovine serum albumin (BSA) and one of the following primary antibodies: (a) rabbit anti-human/mouse ATF-3 (H-90) IgG (polyclonal, 1:500; Santa Cruz Biotechnology, Inc., Santa Cruz, Calif.), (b) anti-activated caspase-3 IgG (monoclonal, 1:250; Chemicon International, Temecula, Calif.) (see FIG. 9), (c) goat antihuman/mouse choline acetyl transferase (ChAT) IgG (polyclonal, 1:100; Chemicon International, Temecula, Calif.) (see FIG. 6), (d) rabbit anti-mouse glial fibrillary acidic protein IgG (polyclonal, 1:250; GeneTex Inc., San Antonio, Tex.) (see FIG. 7), (e) rabbit antihuman/mouse ionized calcium binding adaptor molecule 1 (IBA-1) IgG (polyclonal, 1:500; Wako Pure Chemical Industries, Ltd, Richmond, Va.), (f) mouse anti-human/mouse clone AT8 PHF-1 Tau (monoclonal, 1:200; Pierce Biotechnology Inc., Rockford, Ill.), (g) rabbit anti-human/mouse TAR DNA-binding protein 43 (TDP43) (1:100; ProteinTech Group Inc., Chicago, Ill.) (See FIG. 14), (h) chicken anti-human/mouse β-tubulin 3 (TuJ1 antigen) (polyclonal, 1:100, Ayes Labs, Inc., Tigard, Oreg.), (i) rabbit anti-mouse tyrosine hydroxylase (polyclonal, 1:500, Chemicon International, Temecula, Calif. or polyclonal 1:1000, Affinity BioReagents, Golden, Colo.) (FIG. 10), (j) rabbit anti human/mouse anti-pJunscr73 IgG (polyclonal, 1:200; Chemicon International, Temecula, Calif.), (k) rabbit anti human/mouse anti-HSP-70 IgG (polyclonal, 1:200; Chemicon International, Temecula, Calif.), or (1) rabbit anti human/mouse anti-HSP-25 IgG (polyclonal, 1:100; Chemicon International, Temecula, Calif.). In each experiment, additional slides were incubated with the primary antibody and the secondary antibody omitted or with secondary antibody and primary antibody omitted to test for nonspecific staining. Where appropriate, positive control slides (Alzheimer's disease patient entorhinal cortex, obtained from Drs. Claudia Schwab and Patrick McGeer of the Kinsmen Laboratory, University of British Columbia, Vancouver, BC, Canada) were also processed as above for comparison. […]

SMILES: CC[C@H](/C=C/[C@@H](C)[C@H]1CC[C@H]2[C@@H]3CC=C4C[C@@H](O[C@@H]5O[C@H](CO)[C@@H](O)[C@H](O)[C@H]5O)CC[C@]4(C)[C@H]3CC[C@]12C)C(C)C [SG, Stigmasterol β-D-Glucopyranoside]
- Decrease in tyrosine hydroxylase optical density in striata [1]: not significant
- Anti-ATF-3 immunoreactive cells over time, change ([2]; SG-fed group over time (35 to 52 wk)): Anti-ATF-3 immunoreactive cells (SG-fed group over time): −48%***
- Anti-ATF-3, change ([2]; Time-point 1 (35 wk)): Anti-ATF-3: +242% ***
- Anti-ATF-3, change ([2]; Time-point 2 (52 wk)): Anti-ATF-3: +101%**
- Phosphorylated TDP-43 aggregates ([3]; Time-point 1 (35 wk)): No abnormal translocation of TDP-43 was observed and −
- Phosphorylated TDP-43 aggregates ([3]; Time-point 2 (52 wk)): +
- TDP-43 pathology, incidence in SG-fed group ([3]; Time-point 2 (52 wk), lumbar spinal cord): Two of eight and 2/8
- Pathologic phosphorylated TDP-43-containing aggregates, quantification ([3]; lumbar spinal cord, SG-fed animals): increased
